Laboratory results reported in the supplement of paper PMC10307832.

Tests used:
Test in all cases: relative viability (nuclei count vs DMSO), 5 days (fraction); higher = more cells survive
[1] = compound: C1CCC(CC1)N(CCNCCC2=C3C(=C(C=C2)O)NC(=O)CO3)C(=O)CCNCCC4=CC(=C(C=C4)Cl)Cl [AZ505] + CS(=O)(=O)CCNCc1ccc(-c2ccc3ncnc(Nc4ccc(OCc5cccc(F)c5)c(Cl)c4)c3c2)o1 [Lapatinib] (partner 2 µM)
Summary of the method: (§1)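 Lung cancer cell lines were pin-tool dosed in 1536-well plates on the day after seeding, with either a lone drug or a fixed anchor-drug dose plus five library-drug doses (not always all listed) in √10 steps. Nuclei were counted on 4× images after 5 days. Relative viability is the ratio of treated-well to vehicle-well nuclei counts, with each value a median of duplicate plates.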

[2] = compound: Cn1c(=O)n(-c2ccc(C(C)(C)C#N)cc2)c2c3cc(-c4cnc5ccccc5c4)ccc3ncc21 [Dactolisib] + N=C(N)NC(=N)NCCc1ccccc1 [Phenformin] (partner 250 µM)
Summary of the method: as §1

[3] = compound: Cn1c(=O)n(-c2ccc(C(C)(C)C#N)cc2)c2c3cc(-c4cnc5ccccc5c4)ccc3ncc21 [Dactolisib] + CC(=O)c1c(C)c2cnc(Nc3ccc(N4CCNCC4)cn3)nc2n(C2CCCC2)c1=O [Palbociclib] (partner 0.5 µM)
Summary of the method: as §1

[4] = compound: Cn1c(=O)n(-c2ccc(C(C)(C)C#N)cc2)c2c3cc(-c4cnc5ccccc5c4)ccc3ncc21 [Dactolisib] + CCNC(=O)c1noc(-c2cc(C(C)C)c(O)cc2O)c1-c1ccc(CN2CCOCC2)cc1 [Luminespib] (partner 0.01 µM)
Summary of the method: as §1

Row | Cell Line | relative viability ([1]; first compound 0.08 µM) | relative viability ([1]; first compound 0.253 µM) | relative viability ([1]; first compound 0.8 µM) | relative viability ([1]; first compound 2.53 µM) | relative viability ([1]; first compound 8 µM) | relative viability ([2]; first compound 0.002 µM) | relative viability ([2]; first compound 0.006325 µM) | relative viability ([2]; first compound 0.02 µM) | relative viability ([2]; first compound 0.06325 µM) | relative viability ([2]; first compound 0.2 µM) | relative viability ([3]; first compound 0.002 µM) | relative viability ([3]; first compound 0.006325 µM) | relative viability ([3]; first compound 0.02 µM) | relative viability ([3]; first compound 0.06325 µM) | relative viability ([3]; first compound 0.2 µM) | relative viability ([4]; first compound 0.002 µM) | relative viability ([4]; first compound 0.006325 µM) | relative viability ([4]; first compound 0.02 µM) | relative viability ([4]; first compound 0.06325 µM) | relative viability ([4]; first compound 0.2 µM)
1 | NCI-H2085 | 0.67 | 0.7 | 0.668 | 0.789 | 0.83 | 0.839 | 0.689 | 0.524 | 0.348 | 0.281 | 0.491 | 0.446 | 0.382 | 0.373 | 0.308 | 0.387 | 0.388 | 0.374 | 0.208 | 0.239
2 | NCI-H1793 | 0.541 | 0.524 | 1.04 | 0.75 | 0.889 | 0.477 | 0.294 | 0.228 | 0.202 | 0.187 | 0.289 | 0.212 | 0.21 | 0.212 | 0.19 | 0.155 | 0.15 | 0.164 | 0.163 | 0.165
3 | LC-2-ad | 0.949 | 0.957 | 0.92 | 1 | 0.921 | 0.601 | 0.572 | 0.539 | 0.42 | 0.391 | 0.434 | 0.48 | 0.51 | 0.454 | 0.426 | 1.14 | 0.923 | 0.922 | 0.551 | 0.524
4 | COR-L 105 | 0.344 | 0.302 | 0.349 | 0.339 | 0.372 | 0.494 | 0.489 | 0.432 | 0.256 | 0.259 | 0.393 | 0.375 | 0.432 | 0.392 | 0.31 | 0.776 | 0.889 | 0.55 | 0.334 | 0.254
5 | NCI-H1355 | 0.865 | 0.944 | 0.95 | 0.855 | 0.995 | 0.497 | 0.429 | 0.43 | 0.373 | 0.316 | 0.406 | 0.368 | 0.352 | 0.255 | 0.174 | 0.862 | 0.705 | 0.529 | 0.276 | 0.186
6 | H3255 | 0.249 | 0.235 | 0.268 | 0.283 | 0.247 | 0.386 | 0.354 | 0.388 | 0.328 | 0.348 | 0.332 | 0.305 | 0.321 | 0.313 | 0.314 | 0.843 | 0.875 | 0.912 | 0.796 | 0.511
7 | NCI-H1993 | 0.838 | 0.764 | 0.871 | 0.782 | 0.941 | 0.486 | 0.509 | 0.518 | 0.5 | 0.572 | 0.605 | 0.524 | 0.439 | 0.424 | 0.354 | 0.752 | 0.738 | 0.637 | 0.442 | 0.488
8 | NCI-H1734 | 0.991 | 1 | 1.02 | 1.01 | 1 | 0.428 | 0.333 | 0.353 | 0.238 | 0.203 | 0.344 | 0.356 | 0.314 | 0.228 | 0.201 | 0.151 | 0.211 | 0.196 | 0.184 | 0.169
